Literature values in patent publication US8067462B2, “Processes of making sesquiterpenoid tashironin, its analogs and their uses” (The Trustees of Columbia University in the City of New York, priority 2004, dated 2011).

System: neurite growth

| Molecule | concentration at which neurite growth is promoted (promotes neurite growth at concentrations as low as (Huang et al. 2001)) [µmol] | neurotrophic activity (reported on isolation from the wood of illicium tashiroi (Fukuyama et al. 1995)) |
| --- | --- | --- |
| C[C@@H]1CC[C@@]2(O)C13CC(=O)C1(C)C2(C)CO[C@]1(O)[C@@H]3O [11-O-debenzoyltashironin] | ≥ 0.1 |  |
| tashironin |  | inactive |
